The values that follow come from DBAASP.

Among the test systems are Acinetobacter junii RT-4; Bacillus megaterium Bm11; Escherichia coli D21; Saccharomyces cerevisiae; Staphylococcus capitis 1; Enterococcus faecium; Escherichia coli O157; Pseudomonas aeruginosa 1; Pseudomonas aeruginosa; Staphylococcus aureus 1; Staphylococcus aureus 4; Staphylococcus aureus.
Holding throughout (assay): ≥ marks a high value that may be exact or a test limit, other limits are often not marked, values filed in µg/mL are converted to µM
The subject of test [1] is Acinetobacter baumannii ATCC 19606.
Test [2] has as its system Candida albicans ATCC 10231.
Test [3] concerns Enterococcus faecalis ATCC 29212.
Test [4] has as its system Escherichia coli ATCC 25922.
Test [5] has as its system Pseudomonas aeruginosa ATCC 15692.
In test [6] the test system is Pseudomonas aeruginosa ATCC 27853.
Test [7] relates to Pseudomonas syringae pv. tabaci 1918NCPPB.
Test [8] deals with Schizosaccharomyces pombe.
Test [9] has as its system Staphylococcus aureus ATCC 25923.
For test [10], the system named is Staphylococcus aureus Cowan 1.
Test [11] concerns Staphylococcus epidermidis ATCC 12228.
In test [12] the test system is Streptococcus pyogenes ATCC 21547.
For test [13], the system named is Yersinia pseudotuberculosis YPIII.
Test [14] concerns Candida albicans ATCC 90028.
For test [15], the system named is Candida parapsilosis ATCC 22019.
Test [16] relates to Malassezia furfur KCTC 7744.
The subject of test [17] is Trichosporon beigelii KCTC 7707.
The subject of test [18] is Staphylococcus aureus ATCC 12600.
Test [19] concerns Staphylococcus epidermidis ATCC 14990.
The test system of test [20] is Streptococcus salivarius ATCC 13419.

Molecules are shown by their SMILES. In brackets after ≈: the same amount, converted by molar mass.

With `CC(C)C[C@H](NC(=O)[C@H](Cc1c[nH]c2ccccc12)NC(=O)[C@H](CCCN=C(N)N)NC(=O)CNC(=O)[C@H](CC(C)C)NC(=O)[C@H](CC(C)C)NC(=O)[C@H](CCCCN)NC(=O)[C@H](CO)NC(=O)[C@H](CC(C)C)NC(=O)[C@H](Cc1c[nH]c2ccccc12)NC(=O)[C@H](CCC(N)=O)NC(=O)[C@H](CC(C)C)NC(=O)[C@@H](N)CC(C)C)C(N)=O` [LLQWLSKLLGRWL], the MIC in [1] is 6 µM (≈ 9.75 µg/mL); with Acinetobacter junii RT-4 it was 6 µM (≈ 9.75 µg/mL); with Bacillus megaterium Bm11 it was 3 µM (≈ 4.88 µg/mL); in test [2] it was 12 µM (≈ 19.5 µg/mL); in [3], 12 µM (≈ 19.5 µg/mL); in test [4], greater than 48 µM. Besides, the MIC against Escherichia coli D21 is no less than 48 µM; in test [5] it was no less than 48 µM; in test [6], greater than 48 µM; in [7] it was 12 µM (≈ 19.5 µg/mL); against Saccharomyces cerevisiae, 12 µM (≈ 19.5 µg/mL); in [8] it was 6 µM (≈ 9.75 µg/mL). For the same compound, the minimum inhibitory concentration (MIC) was 6 µM (≈ 9.75 µg/mL) in [9]; 6 µM (≈ 9.75 µg/mL) in test [10]; 6 µM (≈ 9.75 µg/mL) with Staphylococcus capitis 1; 3 µM (≈ 4.88 µg/mL) in test [11]; 6 µM (≈ 9.75 µg/mL) in test [12]; 6 µM (≈ 9.75 µg/mL) in test [13].

On to `CC[C@H](C)[C@H](NC(=O)[C@H](CC(C)C)NC(=O)[C@H](CCCN=C(N)N)NC(=O)[C@@H](NC(=O)[C@H](C)NC(=O)[C@H](CCCCN)NC(=O)[C@H](CC(C)C)NC(=O)[C@H](CC(C)C)NC(=O)[C@@H](N)CCC(=O)O)C(C)C)C(=O)N[C@@H](CCCCN)C(=O)O` [ELLKAVRLIK], for which the MIC stood at 10 µM (≈ 11.8 µg/mL) in [14]; 10 µM (≈ 11.8 µg/mL) in test [15]; 10 µM (≈ 11.8 µg/mL) against Enterococcus faecium; 10 µM (≈ 11.8 µg/mL) against Escherichia coli O157; 20 µM (≈ 23.7 µg/mL) in test [16]; 10 µM (≈ 11.8 µg/mL) against Pseudomonas aeruginosa 1. Also, the MIC is 5 µM (≈ 5.91 µg/mL) with Pseudomonas aeruginosa; 5 µM (≈ 5.91 µg/mL) in the test on Staphylococcus aureus 1; 10 µM (≈ 11.8 µg/mL) against Staphylococcus aureus 4; 20 µM (≈ 23.7 µg/mL) against Staphylococcus aureus; 28.3 µM (≈ 33.4 µg/mL) in test [17].

Take `CC(C)C[C@@H]1NC(=O)[C@H](C(C)C)NC(=O)[C@H](Cc2ccccc2)NC(=O)[C@@H]2CSSC[C@@H]3NC(=O)[C@H](Cc4ccc(O)cc4)NC(=O)[C@@H]4CSSC[C@H](NC(=O)[C@H](CCCN=C(N)N)NC(=O)[C@H]([C@@H](C)O)NC(=O)CNC(=O)[C@H](CC(N)=O)NC(=O)[C@H](CCCN=C(N)N)NC(=O)[C@H](Cc5ccc(O)cc5)NC(=O)[C@H](CSSC[C@H](NC(=O)[C@@H]5CCCN5C1=O)C(=O)N[C@@H](Cc1c[nH]c5ccccc15)C(=O)N[C@@H](CO)C(=O)N[C@@H](C)C(=O)N[C@@H](CCCCN)C(=O)N[C@@H](Cc1ccccc1)C(=O)NCC(=O)N4)NC(=O)[C@H](Cc1ccccc1)NC(=O)CNC(=O)[C@H](CCCCN)NC(=O)[C@H](CCC(N)=O)NC3=O)C(=O)NCC(=O)N[C@@H](CCC(=O)O)C(=O)N[C@@H]([C@@H](C)O)C(=O)N2` [GTRCGETCFVLPCWSAKFGCYCQKGFCYRN]: the minimal inhibitory concentration (MIC) was 3.4 µM (≈ 11.6 µg/mL) in test [4], no less than 80 µM in test [18], no less than 80 µM in test [19] and 5.9 µM (≈ 20.1 µg/mL) in test [20].

By MIC is commonly meant the smallest concentration in the dilution series that meets the test's criterion for growth inhibition.
